Test results from PubChem BioAssay (NCI).
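Five concentrations, 48 hours, 96-well plates. TGI denotes the concentration required for complete inhibition of growth.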

What was measured:
Assay in all cases: NCI tumour cell line growth inhibition, 48 h
HOP-18 NSCLC = tested on: HOP-18 NSCLC
DMS 273 small cell lung = tested on: DMS 273 small cell lung
KM20L2 colon = tested on: KM20L2 colon
P388 leukemia = tested on: P388 leukemia
SN12K1 renal = tested on: SN12K1 renal

Measured: TGI

N=C(N)c1csc([C@@H]2O[C@H](CO)[C@@H](O)[C@H]2O)n1
> 100 µM: HOP-18 NSCLC | DMS 273 small cell lung

Cc1cccc2[s+]snc12
> 100 µM: HOP-18 NSCLC | DMS 273 small cell lung | KM20L2 colon

COC(=O)c1ccc(N=NN(C)COc2ccc([N+](=O)[O-])cc2)cc1
> 100 µM: P388 leukemia | DMS 273 small cell lung | SN12K1 renal | KM20L2 colon

O=C(O)C1Cc2c([nH]c3ccccc23)C=N1 (centres undefined)
> 100 µM: HOP-18 NSCLC | P388 leukemia | DMS 273 small cell lung | KM20L2 colon

CC12CCC(C(=O)N3CC=CCC3)(OC1=O)C2(C)C (centres undefined)
> 100 µM: HOP-18 NSCLC | P388 leukemia | DMS 273 small cell lung | SN12K1 renal | KM20L2 colon

O=C1C(=O)c2ccccc2C(O)=C1CN(CCCl)CCCl
> 100 µM: KM20L2 colon
